This is an account of results in US11905306B2 (priority 2021, dated 2024).

As usually defined, the EC50 is the concentration at which the effect is half-maximal.

Molecules are shown by their SMILES. Some results are limits rather than exact numbers.

One data set concerns USA_WA1/2020 SARS CoV-2. Put plainly: microbe, parasite or virus in culture. In kind it is cell-based. Particulars: Severe acute respiratory syndrome coronavirus 2, Vero C1008, 72 h, read-out: SARS-2 EC50 (μM) VeroE6.
A further data set can be described thus: in vitro. The settings on record: African green monkey.
The next data set relates to Toronto 2 SARS CoV-1. Put plainly: organism not typed. In kind it is cell-based. Particulars: Vero C1008, 72 h, read-out: SARS-1 EC50 (μM) VeroE6.

On to `O=C1Nc2ccc(C(=O)Nc3cccc(C#Cc4ccccn4)c3)cc2CO1` [Compound 3, Oxo-N-(3-(pyridin-2-ylethynyl)phenyl)-1,4-dihydro-2H-benzo[d][1,3]oxazine-6-carboxamide], for which the EC50 was 11.6 µM in the data set with USA_WA1/2020 SARS CoV-2 and more than 30 µM with Toronto 2 SARS CoV-1. The CC50 in “in vitro” was found to be 15.8 µM.
The matching figures for `CCC(=O)Nc1ccc(C(=O)Nc2cccc(C#Cc3ccccn3)c2)cc1` [Compound 6, 4-Propionamido-N-(3-(pyridin-2-ylethynyl)phenyl)benzamide]: 1.01 µM, 0.92 µM and more than 30 µM.
For `CCCC(=O)Nc1ccc(C(=O)Nc2cccc(C#Cc3ccccn3)c2)cc1` [Compound 7, 4-Butyramido-N-(3-(pyridin-2-ylethynyl)phenyl)benzamide], the concentration for a half-maximal effect (EC50) came to 0.26 µM in the data set with USA_WA1/2020 SARS CoV-2 and 0.16 µM in the data set with Toronto 2 SARS CoV-1. This compound gave a CC50 in the data set “in vitro” of more than 30 µM.
Taken in the same sequence, the figures for `O=C(Nc1cccc(C#Cc2ccccn2)c1)c1ccc(NC(=O)C(F)(F)F)cc1` [Compound 10, N-(3-(Pyridin-2-ylethynyl)phenyl)-4-(2,2,2-trifluoroacetamido)benzamide] were 6.52 µM, 4.89 µM and more than 30 µM.
Take `CCOC(=O)Nc1ccc(C(=O)Nc2cccc(C#Cc3ccccn3)c2)cc1` [Compound 11, Ethyl (4-((3-(pyridin-2-ylethynyl)phenyl)carbamoyl)phenyl)carbamate]: the EC50 in the data set with USA_WA1/2020 SARS CoV-2 was 1.07 µM; with Toronto 2 SARS CoV-1, 0.84 µM. Further, the CC50 in “in vitro” is more than 30 µM.
Taken in the same sequence, the figures for `NC(=O)Nc1ccc(C(=O)Nc2cccc(C#Cc3ccccn3)c2)cc1` [Compound 12, N-(3-(pyridin-2-ylethynyl)phenyl)-4-ureidobenzamide] were more than 30 µM, more than 30 µM and more than 30 µM.
Taken in the same sequence, the figures for `O=C(Nc1cccc(C#Cc2ccccn2)c1)c1ccc(NC(=O)N2CCOCC2)cc1` [Compound 13, N-(4-((3-(Pyridin-2-ylethynyl)phenyl)carbamoyl)phenyl)morpholine-4-carboxamide] were 8.25 µM, 7.94 µM and more than 40 µM.
Taken in the same sequence, the figures for `O=C(Nc1cccc(C#Cc2ccccn2)c1)c1ccc(N2CCCNC2=O)cc1` [Compound 15, 4-(2-Oxotetrahydropyrimidin-1(2H)-yl)-N-(3-(pyridin-2-ylethynyl)phenyl)benzamide] were 7.81 µM, 9.71 µM and more than 30 µM.
For the compound `CN1CCN(c2ccc(C(=O)Nc3cccc(C#Cc4ccccn4)c3)cc2)C1=O` [Compound 16, 4-(3-Methyl-2-oxoimidazolidin-1-yl)-N-(3-(pyridin-2-ylethynyl)phenyl)benzamide], the EC50 turned out to be 1.28 µM with USA_WA1/2020 SARS CoV-2 and 0.75 µM in the data set on Toronto 2 SARS CoV-1. In the data set “in vitro”, this compound yielded a CC50 of more than 30 µM.
The matching figures for `O=C(Nc1cccc(C#Cc2ccccn2)c1)c1ccc(N2CCCOC2=O)cc1` [Compound 18, 4-(2-Oxo-1,3-oxazinan-3-yl)-N-(3-(pyridin-2-ylethynyl)phenyl)benzamide]: more than 30 µM, more than 30 µM and more than 30 µM.
The matching figures for `CC(=O)N(C)c1ccc(C(=O)Nc2cccc(C#Cc3ccccn3)c2)cc1` [Compound 19, 4-(N-methylacetamido)-N-(3-(pyridin-2-ylethynyl)phenyl)benzamide]: 3.92 µM, 2.19 µM and more than 30 µM.
The matching figures for `O=C(Nc1cccc(C#Cc2ccccn2)c1)c1ccc(N2CCC2=O)cc1` [Compound 20, 4-(2-oxoazetidin-1-yl)-N-(3-(pyridin-2-ylethynyl)phenyl)benzamide]: 11.7 µM, 2.12 µM and more than 30 µM.
As to `CC1(C)CN(c2ccc(C(=O)Nc3cccc(C#Cc4ccccn4)c3)cc2)C1=O` [Compound 21, 4-(3,3-Dimethyl-2-oxoazetidin-1-yl)-N-(3-(pyridin-2-ylethynyl)phenyl)benzamide], the EC50 is 0.32 µM in the data set on USA_WA1/2020 SARS CoV-2 and 0.52 µM in the data set on Toronto 2 SARS CoV-1. Moreover, the CC50 in the data set “in vitro” is more than 30 µM.
Take `O=C(Nc1cccc(C#Cc2ccccn2)c1)c1ccc(N2CCCCCC2=O)cc1` [Compound 25, 4-(2-Oxoazepan-1-yl)-N-(3-(pyridin-2-ylethynyl)phenyl)benzamide]: the EC50 was found to be 1.09 µM with USA_WA1/2020 SARS CoV-2 and 0.52 µM in the data set on Toronto 2 SARS CoV-1. The compound also had a CC50 in “in vitro” of more than 30 µM.
Taken in the same sequence, the figures for `COc1ccc(C(=O)Nc2ccc(C(=O)Nc3cccc(C#Cc4ccccn4)c3)cc2)cc1` [Compound 27, 4-Methoxy-N-(4-((3-(pyridin-2-ylethynyl)phenyl)carbamoyl)phenyl)benzamide] were more than 30 µM, more than 30 µM and more than 30 µM.
Regarding `O=C(Nc1ccc(C(=O)Nc2cccc(C#Cc3ccccn3)c2)cc1)c1ccc(O)cc1` [Compound 28, 4-Hydroxy-N-(4-((3-(pyridin-2-ylethynyl)phenyl)carbamoyl)phenyl)benzamide], the EC50 is more than 30 µM with USA_WA1/2020 SARS CoV-2 and 17.1 µM with Toronto 2 SARS CoV-1. This compound came in with a CC50 in the data set “in vitro” of more than 30 µM.
As to `CC(=O)Nc1ccc(C(=O)Nc2cccc(C#Cc3ccccn3)c2)cc1O` [Compound 30, 4-Acetamido-3-hydroxy-N-(3-(pyridin-2-ylethynyl)phenyl)benzamide], the EC50 in the data set on USA_WA1/2020 SARS CoV-2 amounted to 4.37 µM; in the data set with Toronto 2 SARS CoV-1 it was 6.18 µM. Moreover, the CC50 in the data set “in vitro” was more than 30 µM.
The matching figures for `CC(=O)Nc1ccc(C(=O)Nc2cccc(C#Cc3ccccn3)c2)nn1` [Compound 31, 6-Acetamido-N-(3-(pyridin-2-ylethynyl)phenyl)pyridazine-3-carboxamide]: more than 30 µM, more than 30 µM and more than 30 µM.
Taken in the same sequence, the figures for `O=C(Nc1cccc(C#Cc2ccccn2)c1)c1ccc(N2CCN(C3CCC3)CC2=O)cc1` [Compound 32, 4-(4-Cyclobutyl-2-oxopiperazin-1-yl)-N-(3-(pyridin-2-ylethynyl)phenyl)benzamide] were 5.02 µM, 6.08 µM and 23.1 µM.
The matching figures for `O=C(Nc1cccc(C#Cc2ccccn2)c1)c1ccc(N2CCN(CC3CCC3)CC2=O)cc1` [Compound 33, 4-(4-(Cyclobutylmethyl)-2-oxopiperazin-1-yl)-N-(3-(pyridin-2-ylethynyl)phenyl)benzamide]: more than 30 µM, 4.62 µM and more than 30 µM.
For the compound `Cc1nc2ccc(C(=O)Nc3cccc(C#Cc4ccccn4)c3)cc2o1` [Compound 34, 2-Methyl-N-(3-(pyridin-2-ylethynyl)phenyl)benzo[d]oxazole-6-carboxamide], the values for the EC50 in the data set with USA_WA1/2020 SARS CoV-2 and in the data set with Toronto 2 SARS CoV-1 were 2.11 µM and 2.01 µM, respectively. The CC50 in “in vitro” came to 26.1 µM.
Taken in the same sequence, the figures for `O=C(Nc1cccc(C#Cc2ccccn2)c1)c1ccc(N2CC3(CCC3)C2=O)cc1` [Compound 35, 4-(1-Oxo-2-azaspiro[3.3]heptan-2-yl)-N-(3-(pyridin-2-ylethynyl)phenyl)benzamide] were 1.64 µM, 0.43 µM and more than 30 µM.
Taken in the same sequence, the figures for `O=C(Nc1cccc(C#Cc2ccccn2)c1)c1ccc(N2CCCC3(CCC3)C2=O)cc1` [Compound 36, 4-(5-Oxo-6-Azaspiro[3.5]nonan-6-yl)-N-(3-(pyridin-2-ylethynyl)phenyl)benzamide] were 0.49 µM, 0.35 µM and 15.3 µM.
Taken in the same sequence, the figures for `O=C(Nc1cccc(C#Cc2ccccn2)c1)c1ccc(C(=O)NC2CC2)cc1` [Compound 37, N^1-cyclopropyl-N^4-(3-(pyridin-2-ylethynyl)phenyl)terephthalamide] were 4 µM, 2.12 µM and more than 30 µM.
As for `O=C(Nc1cccc(C#Cc2ccccn2)c1)c1ccc(C(=O)NC2CCC2)cc1` [Compound 38, N^1-cyclobutyl-N^4-(3-(pyridin-2-ylethynyl)phenyl)terephthalamide], the EC50 was found to be 1.64 µM in the data set on USA_WA1/2020 SARS CoV-2 and 0.75 µM in the data set with Toronto 2 SARS CoV-1. This compound yielded a CC50 in “in vitro” of more than 30 µM.
Take `O=C(Nc1cccc(C#Cc2ccccn2)c1)c1ccc(C(=O)NC2CCCC2)cc1` [Compound 39, N^1-cyclopentyl-N^4-(3-(pyridin-2-ylethynyl)phenyl)terephthalamide]: the figures for the EC50 in the data set on USA_WA1/2020 SARS CoV-2 and in the data set with Toronto 2 SARS CoV-1 were 1 µM and 0.53 µM, respectively. In “in vitro”, this compound had a CC50 of more than 40 µM.
Taken in the same sequence, the figures for `O=C(Nc1cccc(C#Cc2ccccn2)c1)c1ccc(-c2nnco2)cc1` [Compound 41, 4-(1,3,4-Oxadiazol-2-yl)-N-(3-(pyridin-2-ylethynyl)phenyl)benzamide] were 1.54 µM, 0.93 µM and more than 30 µM.
On to `CN(C)c1ccc(C(=O)Nc2cccc(C#Cc3ccccn3)c2)cc1` [Compound 42, 4-(Dimethylamino)-N-(3-(pyridin-2-ylethynyl)phenyl)benzamide], for which the results for the EC50 in the data set with USA_WA1/2020 SARS CoV-2 and with Toronto 2 SARS CoV-1 were 6.52 µM and 1.57 µM, respectively. The compound also yielded a CC50 in “in vitro” of more than 30 µM.
Taken in the same sequence, the figures for `N#CC1(c2ccc(C(=O)Nc3cccc(C#Cc4ccccn4)c3)cc2)CC1` [Compound 45, 4-(1-Cyanocyclopropyl)-N-(3-(pyridin-2-ylethynyl)phenyl)benzamide] were 3.72 µM, 3.12 µM and 20.8 µM.
The matching figures for `Cc1cc(C#Cc2ccccn2)nc(NC(=O)c2ccc3c(c2)CCC(=O)N3)c1` [Compound 47, N-(4-Methyl-6-(pyridin-2-ylethynyl)pyridin-2-yl)-2-oxo-1,2,3,4-tetrahydroquinoline-6-carboxamide]: 6.29 µM, 5.51 µM and more than 30 µM.
The matching figures for `CC(=O)Nc1ccc(-c2nc3ccc(C#Cc4ccccn4)cc3[nH]2)cc1` [Compound 49, N-(4-(5-(Pyridin-2-ylethynyl)-1H-benzo[d]imidazol-2-yl)phenyl)acetamide]: more than 30 µM, more than 30 µM and more than 30 µM.
